pEC50, pIC50: −log10 of the molar value. Read-outs that look alike come from different tables or passages of the source.
Key:
CYP1A2 [1] = target: T1, CYP1A2 (Homo sapiens, UniProt P05177); test: biochemical
T1 sequence (P05177 1-516): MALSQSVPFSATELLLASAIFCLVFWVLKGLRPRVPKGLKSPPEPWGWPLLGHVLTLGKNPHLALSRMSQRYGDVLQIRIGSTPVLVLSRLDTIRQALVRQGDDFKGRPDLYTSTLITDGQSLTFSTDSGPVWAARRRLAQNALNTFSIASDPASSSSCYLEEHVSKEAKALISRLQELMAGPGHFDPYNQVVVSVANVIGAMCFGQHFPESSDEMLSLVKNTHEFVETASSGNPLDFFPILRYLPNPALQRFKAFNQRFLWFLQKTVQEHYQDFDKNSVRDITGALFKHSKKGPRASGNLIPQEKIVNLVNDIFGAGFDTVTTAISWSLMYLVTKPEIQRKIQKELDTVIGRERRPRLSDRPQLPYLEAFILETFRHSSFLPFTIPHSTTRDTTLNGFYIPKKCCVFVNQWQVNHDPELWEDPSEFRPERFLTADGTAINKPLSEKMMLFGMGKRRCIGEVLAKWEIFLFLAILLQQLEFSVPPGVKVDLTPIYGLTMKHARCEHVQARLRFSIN

CYP2C19 = CYP2C19 (Homo sapiens, UniProt P33261); test: in vitro; settings: recombinant CYP2C19 supersomes
[2] = Dog PK (r10 PO 1, r11 IV 1, r12-r14 PO 3, 10, 30 mg/kg); format: in vivo; settings: after BKI-1708 PO 1 mg/kg
Cytotoxicity [3] = settings: human, CRL-8155 B-lymphocyte cell line
[4] = Plasma protein binding, equilibrium dialysis; settings: human
NLuc C. parvum = NLuc C. parvum growth in HCT-8 cells (UW); format: cell-based; settings: Cryptosporidium parvum
[5] = Liver microsome stability; settings: mouse, pooled liver microsomes
Cytotoxicity [6] = settings: human, HEPG2 hepatocyte cell line
PPARγ = target: T2, PPARγ (Homo sapiens, UniProt P37231); test: Cerep binding assay; settings: agonist radioligand, mean
T2 construct: Cerep (Eurofins, France)

Hepatocyte stability [7] = settings: dog
CYP3A4 = CYP3A4 (Homo sapiens, UniProt P08684); test: CYP reaction phenotyping, recombinant supersomes
CYP2C9 [8] = target: T3, CYP2C9 (Homo sapiens, UniProt P11712); test: CYP reaction phenotyping, recombinant supersomes
Hepatocyte stability [9] = settings: monkey
[10] = Liver microsome stability; settings: rat, pooled liver microsomes
CYP2C9 [11] = target: T3, CYP2C9; test: biochemical
CYP2B6 = target: T4, CYP2B6 (Homo sapiens, UniProt P20813); test: CYP reaction phenotyping, recombinant supersomes
T4 sequence (P20813 1-491): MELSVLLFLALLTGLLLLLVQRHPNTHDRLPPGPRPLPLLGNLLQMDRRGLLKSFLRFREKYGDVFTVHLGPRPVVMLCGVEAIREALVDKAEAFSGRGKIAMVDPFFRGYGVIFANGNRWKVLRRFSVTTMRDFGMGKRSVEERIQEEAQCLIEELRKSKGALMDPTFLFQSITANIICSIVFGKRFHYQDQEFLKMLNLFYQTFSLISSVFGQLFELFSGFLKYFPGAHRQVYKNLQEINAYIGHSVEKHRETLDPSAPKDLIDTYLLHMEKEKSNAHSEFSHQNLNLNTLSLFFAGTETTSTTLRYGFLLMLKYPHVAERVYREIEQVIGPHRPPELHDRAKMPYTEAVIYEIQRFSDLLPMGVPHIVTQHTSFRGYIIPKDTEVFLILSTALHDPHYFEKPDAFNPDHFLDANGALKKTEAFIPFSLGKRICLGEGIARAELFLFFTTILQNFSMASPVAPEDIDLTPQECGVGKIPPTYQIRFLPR

CYP1A2 [12] = target: T1, CYP1A2; test: in vitro; settings: recombinant CYP1A2 supersomes
[13] = Plasma concentrations in calf model; format: in vivo; settings: after BKI-1708 5 mg/kg BID
Hepatocyte stability [14] = settings: rat
[15] = tested on: micronuclei in interphase cells; test: In vitro micronucleus (IVMN) test
CYP3A12 = test: CYP Induction Assay in dog hepatocytes; settings: 30 and 100 μM, 48 h
[16] = tested on: C. parvum Bunch Grass Farms isolate; test: Calibr high-content imaging Cryptosporidium panel; format: cell-based, Cryptosporidium parvum; settings: Cryptosporidium parvum
[17] = Monkey PK (r15 PO 1, r16 IV 1 mg/kg); format: in vivo
Cl- channel (GABA-gated) = test: Cerep binding assay
[18] = tested on: panel of 71 common liability targets; test: Cerep panel of 71 common liability targets; format: binding; settings: read-out: IC50s, all Cerep targets except AT2
[19] = liver microsomes and primary hepatocytes

T3 sequence (P11712 whole entry): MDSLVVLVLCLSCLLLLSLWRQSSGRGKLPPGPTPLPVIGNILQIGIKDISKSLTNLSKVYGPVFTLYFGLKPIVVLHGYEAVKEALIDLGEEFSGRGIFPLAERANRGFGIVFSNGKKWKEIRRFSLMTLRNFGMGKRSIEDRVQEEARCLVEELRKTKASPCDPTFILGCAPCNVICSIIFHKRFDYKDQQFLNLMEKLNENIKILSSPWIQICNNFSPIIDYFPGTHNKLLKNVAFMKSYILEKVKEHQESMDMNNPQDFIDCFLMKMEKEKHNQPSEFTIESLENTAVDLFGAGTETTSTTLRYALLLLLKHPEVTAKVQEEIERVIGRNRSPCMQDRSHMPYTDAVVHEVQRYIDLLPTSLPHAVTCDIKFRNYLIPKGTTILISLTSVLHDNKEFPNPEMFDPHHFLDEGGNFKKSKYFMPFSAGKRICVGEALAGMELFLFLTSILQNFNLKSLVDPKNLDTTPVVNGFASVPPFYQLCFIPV
Chain of CYP2C19 (P33261 whole entry): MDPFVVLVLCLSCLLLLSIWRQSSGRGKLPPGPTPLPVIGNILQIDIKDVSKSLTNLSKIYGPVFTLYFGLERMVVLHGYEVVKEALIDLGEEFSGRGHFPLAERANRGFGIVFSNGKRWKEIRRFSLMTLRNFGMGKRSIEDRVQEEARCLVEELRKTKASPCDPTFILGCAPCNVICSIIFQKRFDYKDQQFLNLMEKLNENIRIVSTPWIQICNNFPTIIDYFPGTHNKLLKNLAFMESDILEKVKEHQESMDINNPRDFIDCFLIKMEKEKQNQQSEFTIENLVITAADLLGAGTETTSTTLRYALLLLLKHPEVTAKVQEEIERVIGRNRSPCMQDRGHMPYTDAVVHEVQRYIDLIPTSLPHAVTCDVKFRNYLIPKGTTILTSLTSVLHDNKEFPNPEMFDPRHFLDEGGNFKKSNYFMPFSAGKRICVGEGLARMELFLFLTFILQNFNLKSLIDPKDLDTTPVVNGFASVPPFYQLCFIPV
T2 sequence (P37231 whole entry): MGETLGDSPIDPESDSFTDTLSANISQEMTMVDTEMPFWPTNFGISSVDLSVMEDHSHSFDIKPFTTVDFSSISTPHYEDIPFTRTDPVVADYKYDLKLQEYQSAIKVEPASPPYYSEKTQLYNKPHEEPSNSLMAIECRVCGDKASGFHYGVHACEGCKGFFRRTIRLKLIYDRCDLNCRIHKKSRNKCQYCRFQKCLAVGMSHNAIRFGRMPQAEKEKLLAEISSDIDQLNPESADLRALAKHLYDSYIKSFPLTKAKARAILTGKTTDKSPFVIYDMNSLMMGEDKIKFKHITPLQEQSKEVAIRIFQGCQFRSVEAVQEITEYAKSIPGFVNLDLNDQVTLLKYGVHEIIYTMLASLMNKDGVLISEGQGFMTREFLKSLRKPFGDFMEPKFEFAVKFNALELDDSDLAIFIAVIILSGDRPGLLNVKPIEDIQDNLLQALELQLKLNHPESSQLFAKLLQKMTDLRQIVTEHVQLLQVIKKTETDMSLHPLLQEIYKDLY
Chain of CYP3A4 (P08684 whole entry): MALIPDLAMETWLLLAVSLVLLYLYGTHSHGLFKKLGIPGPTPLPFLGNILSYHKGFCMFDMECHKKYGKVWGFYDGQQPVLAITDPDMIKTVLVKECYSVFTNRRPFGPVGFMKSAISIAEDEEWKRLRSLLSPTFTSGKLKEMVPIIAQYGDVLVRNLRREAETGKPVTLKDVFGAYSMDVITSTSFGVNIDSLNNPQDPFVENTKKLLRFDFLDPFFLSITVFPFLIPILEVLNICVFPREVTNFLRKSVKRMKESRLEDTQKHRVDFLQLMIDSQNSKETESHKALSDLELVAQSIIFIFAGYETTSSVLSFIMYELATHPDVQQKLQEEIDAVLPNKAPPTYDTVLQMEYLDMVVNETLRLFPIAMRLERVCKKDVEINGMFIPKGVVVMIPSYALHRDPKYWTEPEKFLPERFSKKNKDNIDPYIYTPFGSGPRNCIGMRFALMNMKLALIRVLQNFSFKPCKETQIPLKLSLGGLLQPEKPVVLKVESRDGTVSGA

SMILES: CC1(C)Cn2nc(-c3ccc4cc(OC5CC5)ccc4c3)c(C(N)=O)c2NC1O (stereo not drawn) [M2]
- pIC50 (CYP1A2 [1]): < 4.40
- CLint scaled (CYP2C19): < 0.117 mL/min/kg
- half-life (CYP2C19): > 240 min
- M2 AUC0-inf [2]: 196 ± 12 µmol·min/L
- CC50 (Cytotoxicity [3]): 15.6 µM
- fraction unbound [4]: 0.04
- pEC50 (NLuc C. parvum): 6.14
- CLint scaled [5]: 75 mL/min/kg
- half-life [5]: 118 min
- microsomal CLint [5]: 23.6 µL/min/mg
- CC50 (Cytotoxicity [6]): 13.4 µM
- % inhibition of control specific binding (PPARγ; 10 μM): 70.1%
- inhibition at 10 µM (PPARγ; read-out: % inhibition of control specific binding): 70%
- LM:hepatocyte CLint_scaled ratio (Hepatocyte stability [7]; [19]): <2.5
- CLint scaled (Hepatocyte stability [7]; primary hepatocytes): 13.3 mL/min/kg
- half-life (Hepatocyte stability [7]; primary hepatocytes): 411 min
- hepatocyte CLint (Hepatocyte stability [7]; primary hepatocytes): 3.4 µL/min/1e6 cells
- % contribution (CYP3A4): 47.9%
- CLint (CYP3A4): 0.141 µL/min/pmol
- % contribution (CYP2C9 [8]): 0.0%
- CLint (CYP2C9 [8]): <0.029 µL/min/pmol
- LM:hepatocyte CLint_scaled ratio (Hepatocyte stability [9]; [19]): 5.5
- CLint scaled (Hepatocyte stability [9]; primary hepatocytes): 10 mL/min/kg
- half-life (Hepatocyte stability [9]; primary hepatocytes): 389 min
- hepatocyte CLint (Hepatocyte stability [9]; primary hepatocytes): 3.6 µL/min/1e6 cells
- CLint scaled [10]: < 41.7 mL/min/kg
- half-life [10]: > 120 min
- microsomal CLint [10]: < 23.1 µL/min/mg
- pIC50 (CYP2C9 [11]): < 4.40
- % contribution (CYP2B6): 5.1%
- CLint (CYP2B6): 0.044 µL/min/pmol
- CLint scaled (CYP1A2 [12]): 2.78 mL/min/kg
- half-life (CYP1A2 [12]): 60 min
- average peak concentration of M2 [13]: 7.1 ± 4.4 µM
- LM:hepatocyte CLint_scaled ratio (Hepatocyte stability [14]; [19]): <0.7
- CLint scaled (Hepatocyte stability [14]; primary hepatocytes): 63.3 mL/min/kg
- half-life (Hepatocyte stability [14]; primary hepatocytes): 105 min
- hepatocyte CLint (Hepatocyte stability [14]; primary hepatocytes): 13.2 µL/min/1e6 cells
- IVMN test result [15]: negative
- induction of CYP3A12 (CYP3A12): not found to be inducers
- pEC50 [16]: 6.49
- EC90 [16]: 770 nM
- pEC50 ([16]; read-out: Bunch Grass Farm C. parvum Count EC50, Crypto Panel 3 Replicate 1): 6.41
- pEC50 ([16]; read-out: Bunch Grass Farm C. parvum Count EC50, Crypto Panel 3 Replicate 2): 6.61
- EC90 ([16]; read-out: Bunch Grass Farm C. parvum Count EC90, Replicate 1): 966 nM
- EC90 ([16]; read-out: Bunch Grass Farm C. parvum Count EC90, Replicate 2): 569 nM
- M2 AUC0-inf ([17]; after BKI-1708 IV 1 mg/kg): 63 ± 9 µmol·min/L
- M2 AUC0-inf ([17]; after BKI-1708 PO 1 mg/kg): 58 ± 13 µmol·min/L
- pIC50 (Cl- channel (GABA-gated)): 4.77
- % inhibition of control specific binding (Cl- channel (GABA-gated); 10 μM, antagonist radioligand, mean): 50.6%
- pIC50 [18]: < 5.00
